In US20250099448A1, “HETEROCYCLIC COMPOUNDS” (Hoffmann-La Roche Inc., priority 2022, published 2025) one finds IC50 data, which are given here for 23 compounds.

This assay deals with T1, MAGL protein (Homo sapiens, UniProt Q99685).
T1 sequence (Q99685 1-303): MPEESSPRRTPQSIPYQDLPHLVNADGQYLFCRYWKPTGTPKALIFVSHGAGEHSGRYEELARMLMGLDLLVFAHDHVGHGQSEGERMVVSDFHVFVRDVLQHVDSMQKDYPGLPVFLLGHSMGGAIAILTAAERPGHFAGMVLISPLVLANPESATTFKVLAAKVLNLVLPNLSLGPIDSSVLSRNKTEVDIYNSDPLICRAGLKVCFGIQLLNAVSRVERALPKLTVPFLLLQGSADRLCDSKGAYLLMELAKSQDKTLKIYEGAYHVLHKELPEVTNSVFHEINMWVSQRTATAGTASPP
As to the kind of experiment: 2-AG assay: MAGL inhibitory activity by hydrolysis of 2-arachidonoylglycerol to arachidonic acid, followed by mass spectrometry. The class given is biochemical. To be noted: 8 μM 2-arachidonoylglycerol, 15 min preincubation, 30 min reaction at RT, RapidFire MS readout. The essentials:
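MAGL was preincubated 15 min at RT with compound (12.5 to […], 3-fold steps) in 50 mM TRIS, 1 mM EDTA, 0.01% Tween-20, 2.5% DMSO. The reaction ran 30 min at RT with 8 μM 2-AG. Arachidonic acid was quantified by RapidFire SPE-MS/MS against a d8-arachidonic acid internal standard.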

As to `CC(C)(C)Cc1nnc(C23CC(C4CN(C(=O)N5CC6(CC(c7nc(C8CC8)n[nH]7)C6)C5)C4)(C2)C3)s1` [compound 581], the concentration for half-maximal inhibition (IC50) is 2.22 nM.

Consider `N=S(=O)(c1ccc(C2CN(C(=O)N3CC4(CC(c5nc(C6(F)CC6)n[nH]5)C4)C3)C2)cc1)C(F)(F)F` (centres unmarked) [compound 564], for which the IC50 is 0.86 nM.

`O=C(N1CC(Oc2cccc(C3CC3)c2F)C1)N1CC2(CC(c3nnc(C4(O)CC4)[nH]3)C2)C1` [compound 322] registered an IC50 of 11.7 nM.

With `O=C(N1CC2(CCC(Nc3cnc(C(F)(F)F)cn3)CC2)C1)N1CC2(CC(c3nnc(C4CC4)[nH]3)C2)C1` [compound 351], the IC50 is 3.59 nM.

On to `O=C(N1CC2(CC(Cn3cnc(C(F)(F)F)n3)C2)C1)N1CC2(CC(c3nc(C4CC(F)(F)C4)n[nH]3)C2)C1` [compound 441], for which the IC50 turned out to be 414 nM.

`CS(=O)(=O)c1ccc(CC2CCC3(C2)CN(C(=O)N2CC4(CC(c5nnc(C6CC6)[nH]5)C4)C2)C3)cc1C(F)(F)F` (centres unmarked) [compound 153]: inhibition was half-maximal at 0.27 nM (IC50).

`Cc1cc(C(C)(C)C)nn1-c1ccc(C2CN(C(=O)N3CC4(CC(c5nc(C6(O)CC6)n[nH]5)C4)C3)C2)cc1` [compound 820]: it took 0.77 nM to reach half-maximal inhibition (IC50).

`O=C(N1CC2(CC(c3nc(C4CC4)n[nH]3)C2)C1)N1CC2(CN(Cc3ccc(OCC(F)(F)F)nc3)C2)C1` [compound 963] came in with a half-inhibitory concentration (IC50) of 3.95 nM. This IC50 lies about 5.1-fold higher than the previous one.

In turn, `O=C(N1CC2(CC(c3nnc(C4CC4)[nH]3)C2)C1)N1CC2(CN(Cc3cnc(C(F)(F)F)cn3)C2)C1` [compound 164] displayed an IC50 of 18.3 nM.

In turn, `O=C(NCC1(C(F)(F)F)CC1)C1CC2(C1)CN(C(=O)N1CC3(CC(c4nnc(C5CC5)[nH]4)C3)C1)C2` [compound 359] returned an IC50 of 28.4 nM.

The compound `O=C(N1CC2(CC(Oc3cnc(C(F)(F)F)cn3)C2)C1)N1CC2(CC(c3nnc(C4(O)CC4)[nH]3)C2)C1` [compound 76] showed a half-inhibitory concentration (IC50) of 38 nM.

In turn, `O=C(N1CC2(CC(Cc3ccc(C(F)(F)F)cn3)C2)C1)N1CC2(CC(c3nnc(C4(O)CC4)[nH]3)C2)C1` [compound 111] registered an IC50 of 0.6 nM.

In the case of `O=C(N1CC(c2ccc(N3CCC(O)(C(F)(F)F)C3)nc2)C1)N1CC2(CC(c3nnc(C4CC4)[nH]3)C2)C1` (centres unmarked) [compound 269], half-maximal inhibition (IC50) was put at 2.29 nM.

In turn, `O=C(N1CC2(CCC(Cc3ccc(C(F)(F)F)cn3)C2)C1)N1CC2(CC(c3nnc(C4CC4)[nH]3)C2)C1` (centres unmarked) [compound 50] returned an IC50 of 0.19 nM.

For `O=C(N1CC(c2ccc(N3CC(O)(C(F)(F)F)C3)nc2)C1)N1CC2(CC(c3nc(C4CC(F)(F)C4)n[nH]3)C2)C1` [compound 646], the IC50 is 424 nM. Against the preceding compound, the IC50 is about 2200-fold higher.

Take `O=C(N1CC(CNS(=O)(=O)c2cccc(C(F)(F)F)c2)C1)N1CC2(CC(c3nnc(C4(O)CC4)[nH]3)C2)C1` [compound 211]: the IC50 was determined as 136 nM.

For the compound `O=C(N1CC(c2cnc(N3CC[C@@H](C(F)(F)F)C3)nc2)C1)N1CC2(CC(c3nc(C4CC4)n[nH]3)C2)C1` (single isomer, unassigned) [compound 265], the 50% inhibitory concentration (IC50) is 4.38 nM.

For `O=C(N1CC(NCc2ccc(C(F)(F)F)c(F)c2)C1)N1CC2(CC(c3nnc(C4CC4)[nH]3)C2)C1` [compound 193], the IC50 is 45.5 nM.

`O=C(N1CC2(CC(Cn3cnc(C4(C(F)(F)F)CC4)c3)C2)C1)N1CC2(CC(c3nc(C4CC4)n[nH]3)C2)C1` [compound 860] had a 50% inhibitory concentration (IC50) of 2.9 nM.

Take `CS(=O)(=O)c1ccc(CN2CCC3(CC2)CN(C(=O)N2CC4(CC(c5nnc(C6CC6)[nH]5)C4)C2)C3)cc1` [compound 179]: inhibition was half-maximal at 33.6 nM (IC50).

Turning to `O=C(N1CC(c2ccc(N3CC(C(F)(F)F)C3)cc2)C1)N1CC2(CC(c3nnc(C4(O)CC4)[nH]3)C2)C1` [compound 262], it took 1.96 nM to reach half-maximal inhibition (IC50).

On to `Cc1cc(C(F)(F)F)nn1-c1ccc(C2CN(C(=O)N3CC4(CC(c5nnc(C6(O)CC6)[nH]5)C4)C3)C2)cc1` [compound 408], for which the IC50 worked out at 1.46 nM.

As for `O=C(N1CC2(CCC(S(=O)(=O)c3cccc(C(F)(F)F)c3)CC2)C1)N1CC2(CC(c3nc(C4CC4)n[nH]3)C2)C1` [compound 435], half-maximal inhibition (IC50) was put at 3.95 nM.
